Source: patent EP4316461A1, “A PRESERVATIVE COMPOSITION” (BRAIN Biotech AG, priority 2022, dated 2024)
In brackets after ≈: the same amount, converted by molar mass.

Legend:
Test in all cases: Antimicrobial activity (MIC)
Assay type in all cases: cell-based
Leuconostoc lactis = conditions: Leuconostoc lactis, DSM20202; Strain ID DSM 20202; potato dextrose broth pH 3.8; read-out: Minimal Inhibitory Concentration (MIC)
Bacillus cereus = conditions: Bacillus cereus; Strain ID DSM4490; potato dextrose broth pH 3.8; read-out: Minimal Inhibitory Concentration (MIC)
Clostridium sporogenes = conditions: Clostridium sporogenes, ATCC19404; Strain ID ATCC 19404; potato dextrose broth pH 3.8; read-out: Minimal Inhibitory Concentration (MIC)
[1] = system: Phanerochaete chrysosporium; conditions: Phanerodontia chrysosporium, DSM1556; Strain ID DSM 1556; potato dextrose broth pH 3.8; read-out: Minimal Inhibitory Concentration (MIC)
[2] = system: Brettanomyces naardenensis; conditions: Brettanomyces naardenensis, CBS6115; Strain ID CBS 6115; potato dextrose broth pH 3.8; read-out: Minimal Inhibitory Concentration (MIC)
[3] = system: Pasteurella multocida ssp. multocida; conditions: Pasteurella multocida, DSM16031; Strain ID DSM 16031; potato dextrose broth pH 3.8; read-out: Minimal Inhibitory Concentration (MIC)
Zygosaccharomyces bailii = conditions: Zygosaccharomyces bailii, DSM70834; Strain ID DSM 70834; potato dextrose broth pH 3.8; read-out: Minimal Inhibitory Concentration (MIC)
Pseudomonas fluorescens = conditions: Pseudomonas fluorescens; Strain ID DSM50337; potato dextrose broth pH 3.8; read-out: Minimal Inhibitory Concentration (MIC)
Campylobacter jejuni = conditions: Campylobacter jejuni, DSM4688; Strain ID DSM 4688; potato dextrose broth pH 3.8; read-out: Minimal Inhibitory Concentration (MIC)
[4] = system: Gluconacetobacter liquefaciens; conditions: Gluconacetobacter liquefaciens, DSM5603; Strain ID DSM 5603; potato dextrose broth pH 3.8; read-out: Minimal Inhibitory Concentration (MIC)
Alternaria alternata = conditions: Alternaria alternata, DSM12633; Strain ID DSM 12633; potato dextrose broth pH 3.8; read-out: Minimal Inhibitory Concentration (MIC)
[5] = system: Fusobacterium nucleatum subsp. vincentii; conditions: Fusobacterium nucleatum, DSM19507; Strain ID DSM 19507; potato dextrose broth pH 3.8; read-out: Minimal Inhibitory Concentration (MIC)
Penicillium expansum = conditions: Penicillium expansum, DSM62841; Strain ID DSM 62841; potato dextrose broth pH 3.8; read-out: Minimal Inhibitory Concentration (MIC)

C[C@@H]1O[C@@H](O[C@H]2[C@H](O[C@H]3CC[C@@]4(C)[C@@H](CC[C@]5(C)[C@@H]4CC=C4[C@@H]6CC(C)(C)CC[C@]6(C(=O)O)CC[C@]45C)[C@]3(C)CO)OC[C@H](O)[C@@H]2O)[C@H](O)[C@H](O[C@@H]2OC[C@@H](O)[C@H](O)[C@H]2O)[C@H]1O [A, Sapindoside B [30994-75-3]]
MIC (Leuconostoc lactis): 80 µg/mL (≈ 90.6 µM)
MIC (Bacillus cereus): > 80 µg/mL
MIC (Clostridium sporogenes): 80 µg/mL (≈ 90.6 µM)
MIC [1]: > 80 µg/mL
MIC [2]: > 80 µg/mL
MIC [3]: > 80 µg/mL
MIC (Zygosaccharomyces bailii): > 80 µg/mL
MIC (Pseudomonas fluorescens): > 80 µg/mL
MIC (Campylobacter jejuni): > 80 µg/mL
MIC [4]: 140 µg/mL (≈ 159 µM)
MIC (Alternaria alternata): > 80 µg/mL
MIC [5]: 80 µg/mL (≈ 90.6 µM)
MIC (Penicillium expansum): > 500 µg/mL
